From ChEMBL document CHEMBL3046512, “Flubendiamide, a Novel Insecticide Highly Active against Lepidopterous Insect Pests” (J Pestic Sci, 2005) come the findings set out here.

Activity calls are given as the source filed them. No cut-off for these calls is given here. Bounds are passed on as bounds.

In series [1] the test system is Plutella xylostella. Nature of the series: Insecticidal activity against third-instar larvae of Plutella xylostella (diamondback moth) in cabbage leaf disk after 4 to 7 days by leaf dipping method. It is filed as functional, organism-based.
In series [2] the test system is Spodoptera litura. The series can be described thus: Insecticidal activity against fifth-instar larvae of Spodoptera litura in cabbage leaf disk after 4 to 7 days by leaf dipping method. It is filed as functional, organism-based.
The subject of series [3] is Spodoptera litura. The series can be described thus: Insecticidal activity against sixth-instar larvae of Spodoptera litura assessed as sustained body contraction at 2.4 ug/larvae after 24 hr. The format is functional, organism-based.
In series [4] the test system is Plutella xylostella. The series can be described thus: Insecticidal activity against third-instar larvae of organophosphate-resistant Plutella xylostella (diamondback moth) in cabbage leaf disk after 4 to 7 days by leaf dipping method. The format is functional, organism-based.
In series [5] the test system is Plutella xylostella. The series can be described thus: Insecticidal activity against third-instar larvae of carbamate-resistant Plutella xylostella (diamondback moth) in cabbage leaf disk after 4 to 7 days by leaf dipping method. The format is functional, organism-based.
The test system of another series is Autographa nigrisigna. Nature of the series: Insecticidal activity against third-instar larvae of Autographa nigrisigna in cabbage leaf. The format is functional, organism-based.
The subject of the next series is Homona magnanima. The series can be described thus: Insecticidal activity against fourth-instar larvae of Homona magnanima in tea leaf. It is filed as functional, organism-based.
The subject of a further series is Agrotis segetum. Nature of the series: Insecticidal activity against two to third-instar larvae of Agrotis segetum in cabbage leaf. The format is functional, organism-based.
A further series deals with Orius strigicollis. The series can be described thus: Toxicity in adult of Orius strigicollis after 2 days by spraying on food and insect method. The format is organism-based. Particulars: in vivo, 48 h.
The test system of another series is Misumenops. The series can be described thus: Toxicity in adult of Misumenops tricuspidatus after 4 days by insect dipping method. The format is organism-based. Particulars: in vivo, 96 h.
In the next series the test system is Pardosa pseudoannulata. The series can be described thus: Toxicity in adult of Pardosa pseudoannulata after 4 days by insect dipping method. It is filed as organism-based. The conditions noted are these: in vivo, 96 h.
A further series has as its system Chrysoperla carnea. Nature of the series: Toxicity in larvae of Chrysoperla carnea after 2 days by spraying on food and insect method. It is filed as organism-based. Particulars: in vivo, other, 48 h.
A further series relates to Cotesia glomerata. The series can be described thus: Toxicity in adult Cotesia glomerata after 2 days by dry film method. It is filed as organism-based. The conditions noted are these: in vivo, 48 h.
For another series, the system named is Harmonia axyridis. Nature of the series: Toxicity in adult of Harmonia axyridis after 4 days by insect dipping method. Particulars: in vivo, 96 h. The format is organism-based.
For a further series, the system named is Hellula undalis. The series can be described thus: Insecticidal activity against third-instar larvae of Hellula undalis in cabbage leaf. It is filed as functional, organism-based.
The subject of series [6] is Coccinella septempunctata brucki. Nature of the series: Toxicity in adult of Coccinella septempunctata brucki after 4 days by insect dipping method. The format is organism-based. Particulars: in vivo, 96 h.
A further series deals with Aphidius colemani. Nature of the series: Toxicity in adlult of Aphidius colemani after 2 days by dry film method. It is filed as organism-based. Particulars: in vivo, 48 h.
For a further series, the system named is Pieris rapae crucivora. The series can be described thus: Insecticidal activity against second to third-instar larvae of Pieris rapae crucivora. It is filed as functional, organism-based.
In the next series the test system is Adoxophyes honmai. Nature of the series: Insecticidal activity against fourth-instar larvae of Adoxophyes honmai in tea leaf. It is filed as functional, organism-based.
The subject of series [7] is Spodoptera litura. The series can be described thus: Insecticidal activity against sixth-instar larvae of Spodoptera litura assessed as sustained body contraction at 0.24 ug/larvae after 24 hr. It is filed as functional, organism-based.
The subject of another series is Encarsia formosa. Nature of the series: Toxicity in adult Encarsia formosa after 2 days by dry film method. It is filed as organism-based. The conditions noted are these: in vivo, 48 h.
The subject of series [8] is Spodoptera litura. The series can be described thus: Insecticidal activity against fifth-instar larvae of Spodoptera litura assessed as gradual contraction of insect body at 100 mg/l after 24 hr. It is filed as functional, organism-based.
The test system of another series is Aphidoletes aphidimyza. Nature of the series: Toxicity in larvae of Aphidoletes aphidimyza after 2 days by spraying on food and insect method. The format is organism-based. The conditions noted are these: in vivo, 48 h.
A further series has as its system Helicoverpa armigera. The series can be described thus: Insecticidal activity against Helicoverpa armigera. The format is functional, organism-based.
A further series deals with Chilo suppressalis. The series can be described thus: Insecticidal activity against third-instar larvae of Chilo suppressalis (rice stem borer) […]. It is filed as functional, organism-based.
The subject of series [9] is Spodoptera litura. The series can be described thus: Insecticidal activity against fifth-instar larvae of Spodoptera litura assessed as thickening and shortening without convulsion at 100 mg/l after 24 hr. It is filed as functional, organism-based.
A further series has as its system Phytoseiulus persimilis. The series can be described thus: Toxicity in adult of Phytoseiulus persimilis after 2 days by spraying on food and insect method. The format is organism-based. The conditions noted are these: in vivo, 48 h.
A further series concerns Neoseiulus cucumeris. Nature of the series: Toxicity in adlult of Neoseiulus cucumeris after 2 days by spraying on food and insect method. It is filed as organism-based. The conditions noted are these: in vivo, 48 h.
The test system of series [10] is Plutella xylostella. The series can be described thus: Insecticidal activity against third-instar larvae of insecticide-resistant Plutella xylostella (diamondback moth) in cabbage leaf disk after 4 to 7 days by leaf dipping method. It is filed as functional, organism-based.
Series [11] concerns Plutella xylostella. The series can be described thus: Insecticidal activity against third-instar larvae of benzoylphenylurea-resistant Plutella xylostella (diamondback moth) in cabbage leaf disk after 4 to 7 days by leaf dipping method. It is filed as functional, organism-based.
The subject of series [12] is Plutella xylostella. Nature of the series: Insecticidal activity against third-instar larvae of synthetic pyrethroid-resistant Plutella xylostella (diamondback moth) in cabbage leaf disk after 4 to 7 days by leaf dipping method. The format is functional, organism-based.

Turning to `Cc1cc(Cl)ccc1NC(=O)c1cccc(Cl)c1C(=O)NC(C)C`, the EC50 worked out at 1 mgAi/L in the series on Plutella xylostella [1] and 10 mgAi/L with Spodoptera litura [2].

Regarding `Cc1cc(OC(F)(F)F)ccc1NC(=O)c1cccc(I)c1C(=O)NC(C)C`, the EC50 is 0.3 mgAi/L with Plutella xylostella [1] and 1 mgAi/L in the series on Spodoptera litura [2].

For the molecule `Cc1cc(Cl)ccc1NC(=O)c1cccc(F)c1C(=O)NC(C)C`, the results for the EC50 in the series on Plutella xylostella [1] and with Spodoptera litura [2] were 1 mgAi/L and more than 500 mgAi/L, respectively.

Turning to `CC(C)[C@@]1(O)[C@@H](OC(=O)c2cc[nH]c2)[C@@]2(O)[C@]3(C)C[C@@]4(O)O[C@@]5([C@H](O)[C@@H](C)CC[C@]35O)[C@@]2(O)[C@@]41C`, in the series on Spodoptera litura [3], the outcome was Active.

Turning to `Cc1cc(Cl)ccc1NC(=O)c1cccc([N+](=O)[O-])c1C(=O)NC(C)C`, the EC50 in the series on Plutella xylostella [1] and with Spodoptera litura [2] was 10 mgAi/L throughout.

In the case of `CCCSP(=S)(OCC)Oc1ccc(Cl)cc1Cl` (stereo unspecified) [PROTHIOFOS], the EC50 was 3.78 mgAi/L in the series with Plutella xylostella [1] and 24.2 mgAi/L with Plutella xylostella [4].

Consider `CNC(=O)ON=C(C)SC` [METHOMYL], for which the figures for the EC50 in the series with Plutella xylostella [5] and in the series with Plutella xylostella [1] were 287 mgAi/L and 14.5 mgAi/L, respectively.

Take `Cc1cc(Cl)ccc1NC(=O)c1cccc(Br)c1C(=O)NC(C)C`: the results for the EC50 in the series on Plutella xylostella [1] and in the series on Spodoptera litura [2] were 1 mgAi/L and 10 mgAi/L, respectively.

In the case of `COc1ccc(NC(=O)c2cccc(I)c2C(=O)NC(C)C)c(C)c1`, the figures for the EC50 in the series with Plutella xylostella [1] and with Spodoptera litura [2] were 10 mgAi/L and 30 mgAi/L, respectively.

Turning to `Cc1cc(C(F)(C(F)(F)F)C(F)(F)F)ccc1NC(=O)c1cccc(I)c1C(=O)NC(C)(C)CS(C)(=O)=O` [FLUBENDIAMIDE], the EC50 in the series on Autographa nigrisigna is given as 0.02 mgAi/L; in the series on Homona magnanima it was 0.58 mgAi/L; with Agrotis segetum it was 0.18 mgAi/L; in the series on Plutella xylostella [1], 0.001 mgAi/L; with Hellula undalis it was 0.01 mgAi/L; in the series with Pieris rapae crucivora, 0.03 mgAi/L. Further, the EC50 with Adoxophyes honmai was 0.38 mgAi/L; in the series with Chilo suppressalis, less than 0.01 mgAi/L; in the series with Spodoptera litura [2] it was 0.03 mgAi/L; with Plutella xylostella [10] it was 0.002 mgAi/L. Also, the EC30 with Orius strigicollis was more than 100 mgAi/L; in the series with Misumenops, more than 200 mgAi/L; in the series on Pardosa pseudoannulata it was more than 100 mgAi/L; in the series with Chrysoperla carnea, more than 100 mgAi/L; with Cotesia glomerata, more than 100 mgAi/L; in the series with Harmonia axyridis it was more than 200 mgAi/L. In addition, the EC30 was more than 200 mgAi/L in series [6]; more than 400 mgAi/L with Aphidius colemani; more than 400 mgAi/L in the series with Encarsia formosa; more than 100 mgAi/L in the series on Aphidoletes aphidimyza; more than 200 mgAi/L in the series on Phytoseiulus persimilis; more than 200 mgAi/L in the series on Neoseiulus cucumeris. The result with Spodoptera litura [7], in the series on Spodoptera litura [8], in the series with Helicoverpa armigera and with Spodoptera litura [9] was Active.

With `Cc1cc(Cl)ccc1NC(=O)c1ccc(Cl)cc1C(=O)NC(C)C`, the EC50 was 5 mgAi/L in the series on Plutella xylostella [1] and more than 500 mgAi/L in the series with Spodoptera litura [2].

The molecule `CC(=O)NCC(C)(C)NC(=O)c1c(I)cccc1C(=O)Nc1ccc(C(F)(C(F)(F)F)C(F)(F)F)cc1C` displayed an EC50 in the series on Spodoptera litura [2] of 0.1 mgAi/L.

For the molecule `Cc1cc(Cl)ccc1NC(=O)c1cccc(I)c1C(=O)NC(C)C`, the EC50 in the series with Plutella xylostella [1] was 0.3 mgAi/L; in the series with Spodoptera litura [2], 3 mgAi/L.

For `Cc1cc(C(F)(C(F)(F)F)C(F)(F)F)ccc1NC(=O)c1cccc(I)c1C(=O)NC(C)C`, the results for the EC50 with Plutella xylostella [1] and in the series on Spodoptera litura [2] were 0.1 mgAi/L and 0.3 mgAi/L, respectively.

As for `Cc1cc(Cl)ccc1NC(=O)c1cc(Cl)ccc1C(=O)NC(C)C`, the EC50 was 50 mgAi/L in the series on Plutella xylostella [1] and more than 500 mgAi/L with Spodoptera litura [2].

As for `Cc1cc(Cl)ccc1NC(=O)c1ccccc1C(=O)NC(C)C`, the EC50 came to 3 mgAi/L with Plutella xylostella [1] and 10 mgAi/L with Spodoptera litura [2].

Take `Cc1cc(C(F)(C(F)(F)F)C(F)(F)F)ccc1NC(=O)c1cccc(I)c1C(=O)NC(C)(C)C`: the EC50 in the series on Plutella xylostella [1] and in the series with Spodoptera litura [2] was 0.3 mgAi/L in each case.

For the molecule `Cc1c(Cl)cccc1NC(=O)c1cccc(I)c1C(=O)NC(C)C`, the EC50 in the series on Plutella xylostella [1] is on record as 3 mgAi/L; in the series with Spodoptera litura [2], 10 mgAi/L.

On to `O=C(NC(=O)c1c(F)cccc1F)Nc1ccc(Oc2ccc(C(F)(F)F)cc2Cl)cc1F` [FLUFENOXURON], for which the EC50 with Plutella xylostella [1] stood at 0.05 mgAi/L; with Plutella xylostella [11] it was 233 mgAi/L.

As for `Cc1ccc(Cl)cc1NC(=O)c1cccc(I)c1C(=O)NC(C)C`, the EC50 stood at 3 mgAi/L with Plutella xylostella [1] and 10 mgAi/L in the series with Spodoptera litura [2].

In the case of `Cc1cc(Cl)ccc1NC(=O)c1c(Cl)cccc1C(=O)NC(C)C`, the figures for the EC50 with Plutella xylostella [1] and in the series on Spodoptera litura [2] were 10 mgAi/L and more than 500 mgAi/L, respectively.

For `CC1(C)C(/C=C(\Cl)C(F)(F)F)C1C(=O)OC(C#N)c1cccc(Oc2ccccc2)c1` (stereo unspecified) [CYHALOTHRIN], the figures for the EC50 with Plutella xylostella [12] and in the series with Plutella xylostella [1] were 869 mgAi/L and 0.24 mgAi/L, respectively.
